Laboratory results published in patent publication US9801901B2, “Alginate oligomers for use in overcoming multidrug resistance in bacteria” (priority 2009, dated 2017).
Values after ≈ are worked out from the molar mass of the structure shown. Read-outs that look alike come from different tables or passages of the source. Marks after values point to notes of the source that are not given here.

Tests used:
[1] = tested on: Acinetobacter baumannii (Egypt, V9); experiment: MIC-assay, Mueller-Hinton broth with G-block alginate, 384-well, OD600
[2] = tested on: Burkholderia cepacia (1322, V23); experiment: as above
[3] = tested on: PA01 Pseudomonas aeruginosa ATCC 15692; experiment: MIC assay, two-fold antibiotic dilutions in CAMHB with alginate oligomer, no visible growth; type: cell-based; details: PA01
[4] = tested on: Acinetobacter lwoffii (6056, V22); experiment: MIC-assay, Mueller-Hinton broth with G-block alginate, 384-well, OD600
[5] = tested on: V23 1322 Burkholderia cepacia; experiment: MIC assay, CAMHB with alginate oligomer, no visible growth; type: cell-based
[6] = tested on: MDR Pseudomonas strains; experiment: MIC assay of Example 1, summary over the MDR Pseudomonas strains; type: cell-based, Pseudomonas aeruginosa
[7] = tested on: V9 (Egypt) Acinetobacter baumannii; experiment: MIC assay, CAMHB with alginate oligomer, no visible growth; type: cell-based; details: Table 5, V9 MDR Acin. baum
[8] = tested on: Pseudomonas aeruginosa ATCC 39324, mucoid type strain (R79); experiment: as above; type: cell-based; details: R79
[9] = tested on: MDR strains of Pseudomonas aeruginosa, Klebsiella pneumoniae, Burkholderia cepacia, Acinetobacter lwoffii, Acinetobacter baumannii and E. coli; experiment: MIC assay of Example 2, summary over the strains of Tables 4, 5 and 6; type: cell-based; details: Example 2, Tables 4, 5 and 6
[10] = tested on: V10 (Egypt) Acinetobacter lwoffii; experiment: MIC assay, CAMHB with alginate oligomer, no visible growth; type: cell-based; details: Table 5, V10 MDR Acin. lwoff
[11] = tested on: Pseudomonas aeruginosa MDR 301 from Poland (V2); experiment: as above; type: cell-based; details: V2 MDR 301 PA
[12] = tested on: Pseudomonas aeruginosa, Klebsiella pneumoniae and Acinetobacter baumannii strains; experiment: MIC assay of Example 1, summary over the strains; type: cell-based; details: Example 1, Tables 1 and 2, all strains
[13] = tested on: V19 non MDR Acinetobacter baumannii; experiment: MIC assay, CAMHB with M-block alginate oligomer, no visible growth; type: cell-based; details: Table 7, V19 non MDR Acin. baum
Description: The study described in Example 1 was repeated with the following strains of Acinetobacter baumannii, antibiotics and M-block alginate oligomer in place of OligoG CF-5/20 as detailed in Table 7. The M-block oligomer is 100% M with a DPn of 15 to 18,

[14] = tested on: Pseudomonas aeruginosa CFA 24-1, clinical mucoid strain (R80); experiment: MIC assay, CAMHB with alginate oligomer, no visible growth; type: cell-based; details: R80
[15] = tested on: Klebsiella pneumoniae KP05 506 from India (V3); experiment: as above; type: cell-based; details: for MIC: V3 KP05 506
[16] = Table 9, G-block (OligoCF-5/20) 0%
[17] = Table 9, G-block (OligoCF-5/20) 2%
[18] = Table 9, G-block (OligoCF-5/20) 6%
[19] = Table 9, G-block (OligoCF-5/20) 10%
[20] = Pseudomonas aeruginosa, Table 1, OligoCF-5/20 0G, read-out: MIC
[21] = Pseudomonas aeruginosa, Table 1, OligoCF-5/20 +2% G, read-out: MIC
[22] = Pseudomonas aeruginosa, Table 1, OligoCF-5/20 +6% G, read-out: MIC
[23] = Pseudomonas aeruginosa, Table 1, OligoCF-5/20 +10% G, read-out: MIC

CC[C@H]1OC(=O)[C@H](C)[C@@H](O[C@H]2C[C@@](C)(OC)[C@@H](O)[C@H](C)O2)[C@H](C)[C@@H](O[C@@H]2O[C@H](C)C[C@H](N(C)C)[C@H]2O)[C@](C)(O)C[C@@H](C)CN(C)[C@H](C)[C@@H](O)[C@]1(C)O [Azithromycin]
MIC [1, 16]: 4 µg/mL (≈ 5.34 µM)
MIC [1, 17]: < 1 µg/mL
MIC [1, 18]: < 1 µg/mL
MIC [1, 19]: < 1 µg/mL
MIC ([2]; Table 8, G-block (OligoCF-5/20) 0%): 64 µg/mL (≈ 85.4 µM)
MIC ([2]; Table 8, G-block (OligoCF-5/20) 2%): 32 µg/mL (≈ 42.7 µM)
MIC ([2]; Table 8, G-block (OligoCF-5/20) 6%): 32 µg/mL (≈ 42.7 µM)
MIC ([2]; Table 8, G-block (OligoCF-5/20) 10%): 8 µg/mL (≈ 10.7 µM)
MIC ([3]; Pseudomonas aeruginosa, ATCC15692, Table 1, OligoCF-5/20 0G, read-out: MIC): 128 µg/mL (≈ 171 µM)
MIC ([3]; Pseudomonas aeruginosa, ATCC15692, Table 1, OligoCF-5/20 +2% G, read-out: MIC): 64 µg/mL (≈ 85.4 µM)
MIC ([3]; Pseudomonas aeruginosa, ATCC15692, Table 1, OligoCF-5/20 +6% G, read-out: MIC): 16 µg/mL (≈ 21.4 µM)
MIC ([3]; Pseudomonas aeruginosa, ATCC15692, Table 1, OligoCF-5/20 +10% G, read-out: MIC): 4 µg/mL (≈ 5.34 µM)
MIC ([3]; Table 2, OligoCF-5/20 0G): 128^†
MIC ([3]; Table 2, OligoCF-5/20 +2% G): 64^†
MIC ([3]; Table 2, OligoCF-5/20 +6% G): 16^†
MIC ([3]; Table 2, OligoCF-5/20 +10% G): 4^†
MIC [4, 16]: < 2 µg/mL
MIC [4, 17]: < 2 µg/mL
MIC [4, 18]: < 2 µg/mL
MIC [4, 19]: < 2 µg/mL
MIC ([5]; Burkholderia cepacia, Table 5, V23 MDR Burk cep, OligoCF-5/20 0G, read-out: MIC): 128 µg/mL (≈ 171 µM)
MIC ([5]; Burkholderia cepacia, Table 6, V23, Experiment 1 (18-03-10), OligoCF-5/20 0G, read-out: MIC): 64 µg/mL (≈ 85.4 µM)
MIC ([5]; Burkholderia cepacia, Table 6, V23, Experiment 2 (18-03-10), OligoCF-5/20 0G, read-out: MIC): 32 µg/mL (≈ 42.7 µM)
MIC ([5]; Burkholderia cepacia, Table 6, V23, Experiment 3 (19-03-10), OligoCF-5/20 0G, read-out: MIC): 16 µg/mL (≈ 21.4 µM)
MIC ([5]; Table 5, V23 MDR Burk cep, OligoCF-5/20 +2% G): 64^† μg/ml
MIC ([5]; Table 5, V23 MDR Burk cep, OligoCF-5/20 +6% G): 16^† μg/ml
MIC ([5]; Table 5, V23 MDR Burk cep, OligoCF-5/20 +10% G): 4 µg/mL (≈ 5.34 µM)
MIC ([5]; Table 6, V23, Experiment 1 (18-03-10), OligoCF-5/20 +2% G): 64 µg/mL (≈ 85.4 µM)
MIC ([5]; Table 6, V23, Experiment 1 (18-03-10), OligoCF-5/20 +6% G): 64 µg/mL (≈ 85.4 µM)
MIC ([5]; Table 6, V23, Experiment 1 (18-03-10), OligoCF-5/20 +10% G): 32^† μg/ml
MIC ([5]; Table 6, V23, Experiment 2 (18-03-10), OligoCF-5/20 +2% G): 32 µg/mL (≈ 42.7 µM)
MIC ([5]; Table 6, V23, Experiment 2 (18-03-10), OligoCF-5/20 +6% G): 16^† μg/ml
MIC ([5]; Table 6, V23, Experiment 2 (18-03-10), OligoCF-5/20 +10% G): 16^† μg/ml
MIC ([5]; Table 6, V23, Experiment 3 (19-03-10), OligoCF-5/20 +2% G): 16 µg/mL (≈ 21.4 µM)
MIC ([5]; Table 6, V23, Experiment 3 (19-03-10), OligoCF-5/20 +6% G): 16 µg/mL (≈ 21.4 µM)
MIC ([5]; Table 6, V23, Experiment 3 (19-03-10), OligoCF-5/20 +10% G): 16 µg/mL (≈ 21.4 µM)
effectiveness when used in combination with the alginate oligomers [6]: more effective
MIC ([7]; Acinetobacter baumannii, OligoCF-5/20 0G, read-out: MIC): 16 µg/mL (≈ 21.4 µM)
MIC ([7]; OligoCF-5/20 +2% G): 4^† μg/ml
MIC ([7]; OligoCF-5/20 +6% G): 0.5^† μg/ml
MIC ([7]; OligoCF-5/20 +10% G): <0.25 µg/mL
MIC ([8]; Pseudomonas aeruginosa, ATCC39324, Table 1, OligoCF-5/20 0G, read-out: MIC): 128 µg/mL (≈ 171 µM)
MIC ([8]; Pseudomonas aeruginosa, ATCC39324, Table 1, OligoCF-5/20 +2% G, read-out: MIC): 64 µg/mL (≈ 85.4 µM)
MIC ([8]; Pseudomonas aeruginosa, ATCC39324, Table 1, OligoCF-5/20 +6% G, read-out: MIC): 16 µg/mL (≈ 21.4 µM)
MIC ([8]; Pseudomonas aeruginosa, ATCC39324, Table 1, OligoCF-5/20 +10% G, read-out: MIC): 4 µg/mL (≈ 5.34 µM)
MIC ([8]; Table 2, OligoCF-5/20 0G): 128^†
MIC ([8]; Table 2, OligoCF-5/20 +2% G): 64^†
MIC ([8]; Table 2, OligoCF-5/20 +6% G): 16^†
MIC ([8]; Table 2, OligoCF-5/20 +10% G): 4^†
change of MIC with increasing amounts of OligoG CF-5/20 [9]: decreasing MICs
MIC ([10]; Acinetobacter lwoffii, OligoCF-5/20 0G, read-out: MIC): < 0.25 µg/mL
MIC ([10]; OligoCF-5/20 +2% G): <0.25 µg/mL
MIC ([10]; OligoCF-5/20 +6% G): <0.25 µg/mL
MIC ([10]; OligoCF-5/20 +10% G): <0.25 µg/mL
MIC [11, 20]: 64 µg/mL (≈ 85.4 µM)
MIC [11, 21]: 64 µg/mL (≈ 85.4 µM)
MIC [11, 22]: 32 µg/mL (≈ 42.7 µM)
MIC [11, 23]: 16 µg/mL (≈ 21.4 µM)
MIC ([11]; Table 2, OligoCF-5/20 0G): 64^†
MIC ([11]; Table 2, OligoCF-5/20 +2% G): 64 µg/mL (≈ 85.4 µM)
MIC ([11]; Table 2, OligoCF-5/20 +6% G): 32^†
MIC ([11]; Table 2, OligoCF-5/20 +10% G): 16^†
change of MIC with increasing amounts of OligoG CF-5/20 [12]: decreasing MICs
MIC ([13]; M-block oligomer 0M): 32 µg/mL (≈ 42.7 µM)
MIC ([13]; M-block oligomer +2% M): 16 µg/mL (≈ 21.4 µM)
MIC ([13]; M-block oligomer +6% M): 16 µg/mL (≈ 21.4 µM)
MIC ([13]; M-block oligomer +10% M): 16 µg/mL (≈ 21.4 µM)
MIC [14, 20]: 256 µg/mL (≈ 342 µM)
MIC [14, 21]: 128 µg/mL (≈ 171 µM)
MIC [14, 22]: 64 µg/mL (≈ 85.4 µM)
MIC [14, 23]: 8 µg/mL (≈ 10.7 µM)
MIC ([14]; Table 2, OligoCF-5/20 0G): 256^†
MIC ([14]; Table 2, OligoCF-5/20 +2% G): 128^†
MIC ([14]; Table 2, OligoCF-5/20 +6% G): 64^†
MIC ([14]; Table 2, OligoCF-5/20 +10% G): 8^†
effectiveness in conjunction with alginate oligomers ([15]; Example 1, KP05 506): more effective
MIC ([15]; Klebsiella pneumoniae, Table 1, OligoCF-5/20 0G, read-out: MIC): 32 µg/mL (≈ 42.7 µM)
MIC ([15]; Klebsiella pneumoniae, Table 1, OligoCF-5/20 +2% G, read-out: MIC): 16 µg/mL (≈ 21.4 µM)
MIC ([15]; Klebsiella pneumoniae, Table 1, OligoCF-5/20 +6% G, read-out: MIC): 16 µg/mL (≈ 21.4 µM)
MIC ([15]; Klebsiella pneumoniae, Table 1, OligoCF-5/20 +10% G, read-out: MIC): 8 µg/mL (≈ 10.7 µM)
MIC ([15]; Table 2, OligoCF-5/20 0G): 32^†
MIC ([15]; Table 2, OligoCF-5/20 +2% G): 16^†
MIC ([15]; Table 2, OligoCF-5/20 +6% G): 16^†
MIC ([15]; Table 2, OligoCF-5/20 +10% G): 8^†
